From patent US4022832A, “2-Aminoacetamido-α-phenylbenzylideneaminoalkanol derivatives and process for the preparation thereof” (Sankyo Company Limited, priority 1975, dated 1977) come the findings set out here.

Common to all, as to type: in vivo
Assay [1] relates to mice. Briefly: Anti-bemegride convulsant effect. The conditions noted are these: Mus musculus, po, P.O., 1 hour before 30mg/kg bemegride s.c., observed for 30 minutes, Litchfield and Wilcoxon. On the procedure:
(1) Anti-bemegride convulsant effect
One hour after oral administration of the test compound, 30mg/kg of bemegride is subcutaneously injected and the anti-convulsant activity of the compound is observed for 30 minutes.
(§1) (4) Calculation of ED50 values
(§2) The values are calculated according to the method of Litchfield and Wilcoxon [J. Pharmcol. Exp. Therap., 96, 99 (1949)].

In assay [2] the test system is mice. The assay is described as follows: Anti-electroshock convulsant effect. Particulars: Mus musculus, po, P.O., 1 hour before electroshock (1000V, 12.5mA, 0.2sec.) through both corneas, Litchfield and Wilcoxon. As for the experimental part:
(2) Anti-electroshock convulsant effect
One hour after oral administration of the test compound, an electroshock (1000V, 12.5mA, 0.2sec.) is applied through both corneas and anti-convulsant activity of the compound is observed.
as §1, §2

Assay [3] deals with mice. The assay is described as follows: Potentiation of anesthesia (thiopental). The conditions noted are these: Mus musculus, po, P.O., 1 hour before 30mg/kg thiopental i.v., dose prolonging loss of righting reflex twice that of thiopental only, Litchfield and Wilcoxon. As for the experimental part:
(3) Potentiation of anesthesia
One hour after oral administration of the test compound, 30mg/kg of thiopental is intravenously injected, and the dose is determined which prolongs the duration of loss of the righting reflex twice that of the group administered only with thiopental.
as §1, §2

Take `CNC1=Nc2ccc(Cl)cc2C(c2ccccc2)=[N+]([O-])C1` [Chlordiazepoxide]: the median effective dose (ED50) in assay [1] amounted to 2.7 mg/kg; in assay [2], 27 mg/kg; in assay [3], 12 mg/kg.

For the molecule `NCC(=O)Nc1ccc(Br)cc1C(=NCCO)c1ccccc1F` [2-{[2-Aminoacetamido-5-bromo-α -(2-fluorophenyl)benzylidene]amino}ethanol], the ED50 in assay [1] was found to be 0.31 mg/kg; in assay [2] it was 8 mg/kg; in assay [3], 2.9 mg/kg.

A word on the ED50: it is the dose at which the effect has come halfway, by size or by number of responders.
